Tested on: SK-N-SH human neuroblastoma cells
Test: Serum Deprivation/JC-1 Mitochondrial Membrane Potential (MMP) Assay
Assay type: cell-based
Conditions: Homo sapiens, SK-N-SH; for EC50: 18 h, serum deprivation ~18 hours, JC-1 ratio normalized to peak value for 10 μM dimebolin, single curve fit to mean data of n=2-3; for Emax: percent maximal intensity in JC-1 ratio normalized to peak value for 10 μM dimebolin, serum deprivation, read-out: JC-1 max %
Text: The method also involves a high-throughput assay using serum-deprivation conditions involving neuronal cells to screen for compounds that increase or preserve mitochondrial membrane potential. Such compounds can be found to aid in rescuing cells from energy-depletion that occurs in several neurodegenerative states. Mitochondrial-mediated apoptosis occurs in response to a wide range of apoptotic stimuli including p^53, c-myc, DNA damage, prooxidants, chemotherapeutic agents, serum starvation and death receptor activation (Lin C—H., Lu Y-Z., Cheng, F-C., Chu L-F. and Hsuch C-M. Bax-regulated mitochondrial-mediated apoptosis is responsible for the in vitro ischemia induced neuronal cell death of Sprague Dawley rat. Neuroscience Lett. 2005, 387, 22-27).
Thus, this stress inducer, serum deprivation, combined with monitoring changes in the mitochondrial membrane potential in a 96-well format allows for the establishment of an efficient high-throughput screen (HTS) in order to evaluate the ability of compounds to increase mitochondrial membrane potential in the presence of stress and preserve health of the cell. Exemplary procedures for conducting such high-throughput assay are provided below.
SK-N-SH human neuroblastoma cells obtained from American Type Culture Collection (Rockville, Md.) were maintained in the log phase of growth in Minimal Essential Media (MEM), 10% heat inactivated fetal calf serum and 100 units/mL antibiotic-antimycotic (AA). Cells were cultured and maintained in a humidified incubator at 37° C. under 5% CO2 and 95% air. Cells were trypsinized (0.25%) and subcultured every 3 days and used from 15-18 passages. All cell culture supplies were obtained from Invitrogen (Carlsbad, Calif.).
SK-N-SH cells were plated 2-3 days in advance at a concentration of 50,000 cells/well onto collagen coated black-walled 96 well plates (Becton-Dickinson, Bedford, Mass.) in a total volume of […]. On day of experimental treatment, the media containing serum was aspirated from each well and rinsed once with MEM/1% AA without serum. The cells then were incubated overnight in 100 μL of MEM/1% AA (no serum) with and without dimebolin or novel chemical entities overnight for ˜18 hours. The following day, JC-1 dye (5,5′,6,6′-tetrachloro-1,1′,3,3′-tetraethylbenzimidazolcarbocyanide) was diluted 1:10 into MEM media according to the JC-1 Mitochondrial Membrane Potential Assay Kit: (Cayman Chemical Company, Ann Arbor, Mich.) and then 10 μL of the JC-1 dye solution was added to each well. The plates were centrifuged for 5 minutes at 400×g at room temperature followed by 40 minute incubation at 37° C. The plates were washed twice with 200 μL of provided Assay Buffer followed an addition of 100 μL of Assay Buffer to each well. The plates were read with an excitation and emission of 560 nm and 595 nM for red fluorescence and with an excitation and emission of 485 nm and 535 nM for green fluorescence to determine the final JC-1 value taking the red to green fluorescence ratio. This assay is based on change in mitochondrial membrane potential (MMP) using this lipophilic cationic dye, JC-1, by monitoring the changes in the ratio of red to green fluorescence as the MMP depolarizes. This change in MMP reflects the health of the cell with healthy, viable cells have a high JC-1 ratio and high MMP whereas apoptotic, unhealthy cells have a low JC-1 ratio or low MMP.
For the ability of compounds to reverse the stress due to serum deprivation and increase the JC-1 ratio, the percent maximal intensity in JC-1 ratio was normalized to that induced by the peak value for 10 μM dimebolin and plotted against the compound concentration to calculate EC50 values and to control for plate-to-plate variability. Concentration-response data were analyzed using GraphPad Prism (San Diego, Calif.); the EC50 values were derived from a single curve fit to the mean data of n=2-3, in duplicates. […]

## O=C(Cc1ccc(Cl)cc1)N1CCC2CN(Cc3ccccc3)CCN2c2ncccc21 (stereo not shown) [Example 53, 1-(9-benzyl-7,7a,8,9,10,11-hexahydropyrazino[1,2-d]pyrido[3,2-b][1,4]diazepin-5(6H)-yl)-2-(4-chlorophenyl)ethanone]
  EC50: 9.88 µM
  Emax: 210%

## Clc1ccc(CCN2CCC3CN(Cc4ccccc4)CCN3c3ncccc32)cc1 (stereo not shown) [Example 54, 9-benzyl-5-[2-(4-chlorophenyl)ethyl]-5,6,7,7a,8,9,10,11-octahydropyrazino[1,2-d]pyrido[3,2-b][1,4]diazepine]
  EC50: 3.59 µM
  Emax: 177%

## CN1CCC2CN(Cc3ccccc3)CCN2c2ncccc21 (stereo not shown) [Example 55, 9-benzyl-5-methyl-5,6,7,7a,8,9,10,11-octahydropyrazino[1,2-d]pyrido[3,2-b][1,4]diazepine]
  EC50: 9.95 µM
  Emax: 99%

## Fc1ccc(CN2CCN3c4ccccc4CN(Cc4ccc(Br)cc4)CC3C2)cc1 (stereo not shown) [Example 56, 6-(4-bromobenzyl)-3-(4-fluorobenzyl)-1,2,3,4,4a,5,6,7-octahydropyrazino[1,2-a][1,4]benzodiazepine]
  EC50: 5.17 µM
  Emax: 161%

## CN1CCN2c3ccccc3CN(Cc3ccc(Br)cc3)CC2C1 (stereo not shown) [Example 57, 6-(4-bromobenzyl)-3-methyl-1,2,3,4,4a,5,6,7-octahydropyrazino[1,2-a][1,4]benzodiazepine]
  EC50: 10.2 µM
  Emax: 167%

## CC1(C)C(C(=O)N2CCC3CN(Cc4ccccc4)CCN3c3ncccc32)C1(C)C (stereo not shown) [Example 58, (9-benzyl-7,7a,8,9,10,11-hexahydropyrazino[1,2-d]pyrido[3,2-b][1,4]diazepin-5(6H)-yl)(2,2,3,3-tetramethylcyclopropyl)methanone]
  EC50: 3.65 µM
  Emax: 215%

## CC1(C)C(CN2CCC3CN(Cc4ccccc4)CCN3c3ncccc32)C1(C)C (stereo not shown) [Example 59, 9-benzyl-5-[(2,2,3,3-tetramethylcyclopropyl)methyl]-5,6,7,7a,8,9,10,11-octahydropyrazino[1,2-d]pyrido[3,2-b][1,4]diazepine]
  EC50: 3.4 µM
  Emax: 306%

## O=C(Cc1ccc(Cl)nc1)N1Cc2ccccc2N2CCN(Cc3ccccc3)CC2C1 (stereo not shown) [Example 60, 1-(3-benzyl-1,2,3,4,4a,5-hexahydropyrazino[1,2-a][1,4]benzodiazepin-6(7H)-yl)-2-(6-chloropyridin-3-yl)ethanone]
  EC50: 4.14 µM
  Emax: 224%

## Clc1ccc(CCN2Cc3ccccc3N3CCN(Cc4ccccc4)CC3C2)cn1 (stereo not shown) [Example 63, 3-benzyl-6-[2-(6-chloropyridin-3-yl)ethyl]-1,2,3,4,4a,5,6,7-octahydropyrazino[1,2-a][1,4]benzodiazepine]
  EC50: 1.95 µM
  Emax: 173%

## Fc1ccc(CN2CCN3c4ncccc4N(CC4CC4)CCC3C2)cc1 (stereo not shown) [Example 64, 5-(cyclopropylmethyl)-9-(4-fluorobenzyl)-5,6,7,7a,8,9,10,11-octahydropyrazino[1,2-d]pyrido[3,2-b][1,4]diazepine]
  EC50: 5.66 µM
  Emax: 139%

## Fc1ccc(CN2CCN3c4ncccc4N(CC4CCC4)CCC3C2)cc1 (stereo not shown) [Example 65, 5-(cyclobutylmethyl)-9-(4-fluorobenzyl)-5,6,7,7a,8,9,10,11-octahydropyrazino[1,2-d]pyrido[3,2-b][1,4]diazepine]
  EC50: 4.59 µM
  Emax: 133%

## CC(C)(C)OC(=O)N1CCN2c3ccccc3CN(Cc3ccc(Br)cc3)CC2C1 (stereo not shown) [Example 66, tert-butyl 6-(4-bromobenzyl)-1,2,4a,5,6,7-hexahydropyrazino[1,2-a][1,4]benzodiazepine-3(4H)-carboxylate]
  EC50: 4.84 µM
  Emax: 192%

## CC(C)(C)OC(=O)N1CCN2c3ccccc3CN(Cc3ccc(Br)cc3)C(=O)C2C1 (stereo not shown) [Example 67, tert-butyl 6-(4-bromobenzyl)-5-oxo-1,2,4a,5,6,7-hexahydropyrazino[1,2-a][1,4]benzodiazepine-3(4H)-carboxylate]
  EC50: 5.06 µM
  Emax: 215%

## Fc1ccc(CN2CCN3c4ncccc4N(C[C@@H]4CCN4)CCC3C2)cc1 (stereo partly drawn) [Example 68, 5-[(2S)-azetidin-2-ylmethyl]-9-(4-fluorobenzyl)-5,6,7,7a,8,9,10,11-octahydropyrazino[1,2-d]pyrido[3,2-b][1,4]diazepine]
  EC50: 8.64 µM
  Emax: 157%

## Fc1ccc(CN2CCN3c4ncccc4N(CC4CNC4)CCC3C2)cc1 (stereo not shown) [Example 69, 5-(azetidin-3-ylmethyl)-9-(4-fluorobenzyl)-5,6,7,7a,8,9,10,11-octahydropyrazino[1,2-d]pyrido[3,2-b][1,4]diazepine]
  EC50: 10.3 µM
  Emax: 154%

## O=C1C2CNCCN2c2ccccc2CN1Cc1ccc(Br)cc1 (stereo not shown) [Example 70, 6-(4-bromobenzyl)-2,3,4,4a,6,7-hexahydropyrazino[1,2-a][1,4]benzodiazepin-5(1H)-one]
  EC50: 9.61 µM
  Emax: 156%

## Brc1ccc(CN2Cc3ccccc3N3CCNCC3C2)cc1 (stereo not shown) [Example 71, 6-(4-bromobenzyl)-1,2,3,4,4a,5,6,7-octahydropyrazino[1,2-a][1,4]benzodiazepine]
  EC50: 7.85 µM
  Emax: 105%

## O=C(C1CC1)N1CCC2CNCCN2c2ncccc21 (stereo not shown) [Example 72, cyclopropyl(7,7a,8,9,10,11-hexahydropyrazino[1,2-d]pyrido[3,2-b][1,4]diazepin-5(6H)-yl)methanone]
  EC50: 13.3 µM
  Emax: 98%

## O=C1C2CN(Cc3ccc(F)cc3)CCN2c2ccccc2CN1Cc1ccc(Br)cc1 (stereo not shown) [Example 73, 6-(4-bromobenzyl)-3-(4-fluorobenzyl)-2,3,4,4a,6,7-hexahydropyrazino[1,2-a][1,4]benzodiazepin-5(1H)-one]
  EC50: 4.27 µM
  Emax: 229%

## O=C(c1cccnc1)N1CCN2c3ncccc3N(CC3CC3)CCC2C1 (stereo not shown) [Example 74, [5-(cyclopropylmethyl)-6,7,7a,8,10,11-hexahydropyrazino[1,2-d]pyrido[3,2-b][1,4]diazepin-9(5H)-yl](pyridin-3-yl)methanone]
  EC50: 7.82 µM
  Emax: 109%

## O=C(N1CCOCC1)N1Cc2ccccc2N2CCNCC2C1 (stereo not shown) [Example 75, 1,2,3,4,4a,5-hexahydropyrazino[1,2-a][1,4]benzodiazepin-6(7H)-yl(morpholin-4-yl)methanone]
  EC50: > 10 µM
  Emax: 48%

## O=C(N1CCOCC1)N1Cc2ccccc2N2CCN(Cc3ccc(F)cc3)CC2C1 (stereo not shown) [Example 76, [3-(4-fluorobenzyl)-1,2,3,4,4a,5-hexahydropyrazino[1,2-a][1,4]benzodiazepin-6(7H)-yl](morpholin-4-yl)methanone]
  EC50: 7.06 µM
  Emax: 127%

## CN1CCN2c3ccccc3CN(C(=O)N3CCOCC3)CC2C1 (stereo not shown) [Example 77, (3-methyl-1,2,3,4,4a,5-hexahydropyrazino[1,2-a][1,4]benzodiazepin-6(7H)-yl)(morpholin-4-yl)methanone]
  EC50: 10.2 µM
  Emax: 57%

## O=C(Cn1ncccc1=O)N1CCC2CN(Cc3ccccc3)CCN2c2ccccc21 (stereo not shown) [Example 78, 2-[2-(3-benzyl-2,3,4,4a,5,6-hexahydropyrazino[1,2-a][1,5]benzodiazepin-7(1H)-yl)-2-oxoethyl]pyridazin-3(2H)-one]
  EC50: 8.55 µM
  Emax: 143%

## O=C(c1ccccc1)N1CCN2c3ccccc3CN(C(=O)N3CCOCC3)CC2C1 (stereo not shown) [Example 79, (3-benzoyl-1,2,3,4,4a,5-hexahydropyrazino[1,2-a][1,4]benzodiazepin-6(7H)-yl)(morpholin-4-yl)methanone]
  EC50: 9.25 µM
  Emax: 86%

## O=C(N1CCOCC1)N1Cc2ccccc2N2CCN(c3ncccn3)CC2C1 (stereo not shown) [Example 80, morpholin-4-yl[3-(pyrimidin-2-yl)-1,2,3,4,4a,5-hexahydropyrazino[1,2-a][1,4]benzodiazepin-6(7H)-yl]methanone]
  EC50: 11.9 µM
  Emax: 97%

Reference: patent US9133206B2, “Benzodiazepine and pyridodiazepine derivatives” (AbbVie Inc., priority 2010, dated 2015)
